From US20030212078A1, “Topical administration of pharmacological compositions for non-systemic treatment of pruritus” (priority 2003, published 2003)

Columns and labels:
[1] = system: patients with pruritus associated with atopic dermatitis; settings: human, in vivo
Experimental: In another small uncontrolled and unblinded trial, one group of patients with pruritus associated with atopic dermatitis was treated with a spray (aqueous buffered solution of 40 mg/ml hydroxyzine hydrochloride), which was topically applied to an area of the patients' skin affected by atopic dermatitis. The patients were instructed to spray about 0.1 ml (three pump actions of the manually operated spray bottle) of the composition onto an area of about 10 cm^2 affected by symptomatic itching for up to 5 applications per day for a period of two weeks. A second group of group of patients with pruritus associated with atopic dermatitis was treated with a cream (W/O emulsion containing 2% (wt) hydroxyzine hydrochloride), which was topically applied to an area of the patients' skin affected by atopic dermatitis. The patients were instructed to massage a small portion (about 0.2 gram) into an area of about 10 cm^2 affected by symptomatic itching for up to 5 applications per day for a period of two weeks.

[2] = system: patients with pruritus (neurodermatitis; insect bite); experiment: Small, uncontrolled and unblinded trial of hydroxyzine*HCl skin cream in two patients with pruritus; format: in vivo, human; settings: skin cream comprising 5% (by weight) hydroxyzine*HCl, both patients
Experimental: In a small, uncontrolled and unblinded trial, two patients with pruritus were treated with a skin cream comprising 5% (by weight) hydroxyzine*HCl. The first patient was diagnosed with neurodermatitis (a non-allergic condition), while the second patient was diagnosed with an insect bite (an allergic condition).

patients who experienced weight gain of at least 4% ([1]; 2 months) | patients who experienced drowsiness ([1]; 2 weeks) | patients who experienced transient tachycardia ([1]; 2 weeks) | Compound | time to positive result (significant reduction in pruritus) [2] | positive result (reduction in pruritus) ([2]; two patients (neurodermatitis, insect bite))
5/15 | – | – | CN1CCC(=C2c3ccccc3C=Cc3ccccc32)CC1 [cyproheptadine] | – | –
– | 13/15 | 4/15 | Cl.Cl.OCCOCCN1CCN(C(c2ccccc2)c2ccc(Cl)cc2)CC1 (centres unmarked) [hydroxyzine, 1-(p-chlorobenzhydryl) 4-[2-(2-hydroxyethoxy)-ethyl] piperazine dihydrochloride] | 60 s | significant reduction in pruritus
